# Experimental data reported in US6911435B1 (Can-Fite Biopharma Ltd., priority 1997, dated 2005).
# Columns and labels:
# Nb2-11C lymphoma cells = assay: Cell count assay, proliferation of Nb2-11C lymphoma cells; type: cell-based, rat; conditions: adenosine 1-20 μM, 48 hours
# Experimental: The Nb2-11C cells were synchronized in the GO/Gl phase prior to cultivation with the CM by transferring the cells to horse serum (Biological Industries, Beit Haemek, Israel) supplemented medium for overnight incubation. […] Cell proliferation was initiated by the addition of Human Growth Hormone (Biotechnology General, Rehovot, Israel) to a final concentration of 2 ng/ml. The cultures were incubated at 37° C. at 5% CO2 and counted in Coulter Counter 48 hours later.
# white blood cells [1] = assay: Example 5 in vivo: white blood cell count and percentage of granulocytes; set-up: species or system C57BL6/J mice
# Experimental: 50 C57BL6/J mice were divided into 5 groups of 10 mice each, which were treated by intraperitoneal injection with one of the following treatments: • 1. Control group: 6 days of treatment by daily injection of 1 ml saline. • 2. […] Chemotherapy group: daily injection of 1 ml saline for 5 consecutive days. On day 6 the mice were injected intraperitoneally with cyclophosphamide. • 5. […] On day 6 the mice were injected intraperitoneally with cyclophosphamide. Results
# [2] = tested on: normal cells (bone marrow cells, fibroblasts, L-8 myoblast); assay: [3H]-Thymidine incorporation assay, normal cells; type: cell-based, mice, rat; conditions: adenosine 4 μM, FIG. 2
# Experimental: As a control for tumor proliferating cells, two normal proliferating cell types were used i.e., bone marrow cells derived from the femur of C57BL/6J mice; fibroblasts derived from primary cultures of newborn rat skeletal muscle cells. The cells were prepared as previously, (Djaldetti, M., Sredni, B., Zigelman, R., Verber, M., and Fishman, P. Muscle cells produce a low molecular weight factor with anti-cancer activity. Clin. Exp. Matastasis, 14:189-196, 1996). Also used was the L-8 myoblast rat cell line which was purchased from the ATCC.
# (§1) During the last 6 hours of incubation, each well was pulsed with 1 μCi[^3H]-Thymidine. The cells were harvested and the [^3H]-Thymidine uptake was determined in an LKB liquid scintillation counter (LKB, Piscataway, N.J., USA).
# bone marrow cells [3] = assay: Bone marrow cell proliferation in vitro (adenosine dose response, adenosine receptor antagonists); type: cell-based, C57BL/6J mice; conditions: FIG. 3
# Experimental: as §1
# NK cells = assay: NK activity of splenocytes from adenosine treated mice, Yac targets; type: in vivo, ICR mice; conditions: 5 consecutive days 10 μM adenosine; two effector:target ratios; FIG. 8
# bone marrow cells [4] = assay: Example 2: proliferation capacity of bone marrow from treated mice ([3H]-Thymidine); type: in vivo, C57BL6/J mice; conditions: after 24 hours
# Experimental: as §1
# (§2) On day 6 the mice were injected intraperitoneally with 1 ml saline. • 4. chemotherapy group: daily injection of 1 ml saline for 5 consecutive days. On day 6 the mice were injected intraperitoneally with cyclophosphamide.
# Five mice of each group were sacrificed […] and 96 hrs following the treatments and two parameters were evaluated: • 1. complete blood cell count. • 2. Proliferation capacity of bone marrow: bone marrow was aspirated from the femur and pooled for each tested group. The cells were separated, counted and the proliferative capacity was evaluated by the [^3H]-Thymidine incorporation assay as described above.
# blood cells = assay: Example 3 in vivo: blood cell parameters after adenosine and/or chemotherapy; conditions: for white blood cell count versus control: Example 3, in words
# Experimental: 40 C57BL6/J were divided into 4 groups, each of which was treated (by intraperitoneal injection) according to one of the following protocols: • 1. Control group: 6 days of treatment by daily injection of 1 ml saline. • 2. Chemotherapy group: daily injection of 1 ml saline for 5 consecutive days. On day 6 the mice were injected intraperitoneally with cyclophosphamide. • 3. […] On day 6 the mice were injected intraperitoneally with 1 ml saline. • 4.
# The following parameters were evaluated for each group: • i. Red blood cell (RBC) count. • ii. Hemoglobin (HGB) level. • iii. White blood cell count. • iv. Proportion of the three major groups of white blood cells: Lymphocytes (LYM), Monocytes (MID) and Granulocytes (GRAN). Results
# K562 cells = assay: K562 cell proliferation with adenosine and theophylline; type: cell-based, human
# Experimental: as §1
# Culture conditions were identical to those described above.
# [5] = tested on: leukemia, lymphoma and the solid tumor cell lines; assay: [3H]-Thymidine incorporation assay, tumor cell lines; type: cell-based, human, murine; conditions: adenosine 4 μM, FIG. 2
# Source text: Tumor cell lines from human (K562 myeloid leukemia, Tib-180 erythroleukemia, LNCaP prostate carcinoma and MDA-MB468 breast adenocarcinoma), and murine (Yac lymphoma, B-16 melanoma) were used and were purchased from the American Type Tissue Culture Collection, Rockville. Nb2 11c rat lymphoma cells (Pines et al.^(19), were also used. The cells were routinely maintained in RPM medium containing 10% fetal calf serum. Twice a week the cells were transferred to a freshly prepared medium.
# as §1
# white blood cells [6] = assay: Example 2 in vivo: white blood cell count after adenosine and/or cyclophosphamide; set-up: species or system C57BL6/J mice; conditions: i.p.
# Experimental: as §2
# […] Proliferation capacity of bone marrow: bone marrow was aspirated from the femur and pooled for each tested group. The cells were separated, counted and the proliferative capacity was evaluated by the [^3H]-Thymidine incorporation assay as described above.
# [7] = tested on: human peripheral blood NK cells; assay: NK activity of peripheral blood cells, 51Cr-release assay, K562 targets; type: cell-based; conditions: 4 μM adenosine, 18 hours preincubation
# Experimental: K562 cells were used as the targets (T) and were labeled with 100 μCi of Na2[^51Cr]O4 at 37° for 1 h. After extensive washing to remove the excess Cr, cells (1×10^4) were resuspended and mixed with the effector cells at the E:T ratio of […] in a volume of 200 μl using triplicate assays. After 4 h of incubation at 37° C. in 5% CO2, plates were centrifuged, and the supernatants were counted in a gamma counter (LKB). […] Spontaneous release was below 8% of the maximal release throughout this experiment.
# IL-12 = IL-12 production by peripheral blood mononuclear cells; type: cell-based, human; conditions: 4 μM adenosine
# Experimental: Mononuclear cells (MNC) were fractionated from heparinized blood of 10 healthy volunteers using Ficoll-Hypaque gradient. […] At the end of the incubation period the supernatant was collected, centrifuged and filtered through 0.22μ sterile filter and kept at −70° C. until assayed. The level of IL-12 in the supernatants was analyzed using a commercial kit of R&D System.
# B-16-F10 melanoma cells = assay: Example 4 in vivo: B-16-F10 melanoma lung tumor foci; set-up: species or system C57BL6/J mice; conditions: for No. of foci (melanoma tumor foci in the lung): 18 days, adenosine 1 ml 5 mM daily i.p.
# [8] = 5 μM adenosine group, daily i.p. 6 days
# [9] = adenosine where given 10 μM, cyclophosphamide where given on day 6
Compound,GRAN (white blood cells [1]; [9]),WBC (white blood cells [1]; [9]),Bone Marrow Cell Proliferation (bone marrow cells [4]),white blood cell count versus control (blood cells),"% GRAN (granulocytes, % out of the number of white blood cells) (blood cells; mean±S.E.)","% LYM (lymphocytes, % out of the number of white blood cells) (blood cells; mean±S.E.)","% MID (monocytes, % out of the number of white blood cells) (blood cells; mean±S.E.)",WBC count (white blood cells [6]; 24 hours after treatment),WBC count (white blood cells [6]; 96 hours after treatment),No. of foci (melanoma tumor foci in the lung) (B-16-F10 melanoma cells),other results
Nc1ncnc2c1ncn2[C@@H]1O[C@H](CO)[C@@H](O)[C@H]1O [adenosine],10.76%,7.56 count × 10^3/I,1480.0 ± 68.5 CPM,boosted to levels above control,21.03 ± 2.75%,65.57 ± 3.35%,13.4 ± 0.70%,9.37 ± 0.26 × 10^6/ml,6.8 ± 0.73 × 10^6/ml,6.11 ± 2.74,"growth of Nb2-11c rat lymphoma cells (cell count) (Nb2-11C lymphoma cells): markedly inhibited; GRAN (white blood cells [1]; [8]): 9.00%; WBC (white blood cells [1]; [8]): 9.50 count × 10^3/I; proliferation of the three tested normal cells [2]: stimulated the proliferation; concentration of peak stimulatory activity on bone marrow cell proliferation (bone marrow cells [3]): about 10 μM; NK activity of splenocytes, lysis of Yac target cells (NK cells): more potent in lysing the Yac target cells; HGB (hemoglobin count) (blood cells; mouse, in vivo): 14.03 ± 0.20 gram/100 ml; K562 tumor cell proliferation (K562 cells; adenosine 4 μM, FIG. 4): inhibited tumor cell proliferation; proliferation of leukemia, lymphoma and solid tumor cell lines [5]: induced proliferation inhibition; stimulation of NK activity [7]: 32%; production of IL-12 in the presence of SAC mitogen (IL-12; 18 hours, FIG. 7): stimulated the production of IL-12; stimulation of IL-12 production without mitogen (IL-12; no mitogen): 19%; tumor load (tumor foci in the lungs) (B-16-F10 melanoma cells; oral 0.5 ml of 10 μM adenosine, about 54 μg/kg, with chemotherapeutic drug, FIG. 6): synergized with the chemotherapeutic drug to reduce the tumor load"
O=P1(N(CCCl)CCCl)NCCCO1 (centres unmarked) [cyclophosphamide],7.70%,5.00 count × 10^3/I,434.5 ± 52.2 CPM,caused a reduction in the amount of white blood cells,10.28 ± 1.59%,81.94 ± 2.49%,7.78 ± 0.92%,3.8 ± 0.18 × 10^6/ml,3.62 ± 0.17 × 10^6/ml,4.16 ± 1.42,HGB (hemoglobin count) (blood cells; mean±S.E.): 14.88 ± 8.32 gram/100 ml
"Cn1c(=O)c2[nH]cnc2n(C)c1=O [theophylline, Theophylline]",–,–,–,–,–,–,–,–,–,–,"effect on the inhibitory effect of adenosine on tumor cell proliferation (K562 cells; theophylline 0.1 μM with 4 μM adenosine, K562): this inhibitory effect was neutralized"
